# Biological target: T1, β-secretase (ectodomain of BACE, amino acids 1-454) (Homo sapiens, UniProt P56817)
# T1 construct: poly-histidine; made in house; host or cells: HEK293/APP/BACEect. cells; unpurified culture supernatant in OptiMEM used as enzyme source
# Assay: β-secretase activity assay, fluorescence-quenched Cy3/Cy5Q peptide substrate
# Assay type: biochemical
# Conditions: 100 μM test compound; positive control minus negative control = 100%; values above 100% adjusted to 100%
# Experimental: To calculate the IC50 value of a substance different amounts of substance are incubated with the β-secretase in an assay. The IC50 value of a compound is defined as the concentration of substance at which a 50% reduction in the detected signal is measured, compared with the mixture without the test compound. Substances are evaluated as inhibiting β-secretase if under these conditions their IC50 value is less than 50 μM, preferably less than 10 μM and particularly preferably less than 1 μM.
# In detail, an assay for detecting β-secretase activity may be as follows: The ectodomain of BACE (amino acids 1-454) fused to the recognition sequence for an anti-Myc antibody and a poly-histidine is secreted overnight by HEK293/APP/BACEect. cells in OptiMEM® (Invitrogen). A 10 μl aliquot of this cell culture supernatant is used as the enzyme source. The enzyme is stable over more than 3 months' storage at 4° C. or −20° C. in OptiMEM®. The substrate used is a peptide with the amino acid sequence SEVNLDAEFK, to which the Cy3 fluorophore (Amersham) is coupled N-terminally and the Cy5Q fluorophore (Amersham) is coupled C-terminally. The substrate is dissolved in DMSO in a concentration of 1 mg/ml and used in the experiment in a concentration of 1 μM. The test mixture also contains 20 mM NaOAc, pH 4.4 and a maximum of 1% DMSO. The test is carried out in a 96-well plate in a total volume of 200 μl for 30 minutes at 30° C. The cleaving of the substrate is recorded kinetically in a fluorimeter (ex: 530 nm, em: 590 nm). The assay is started by adding the substrate.
# Mixtures without enzyme (i.e. negative control) or without inhibitor (i.e. positive control) are included in each plate as controls.
# The activity of the positive control (minus the negative control=background) is set to 100% and activity in the presence of test compound is expressed relative to these 100%. […]
# IC50 can be calculated with Graph Pad Prism or other suited software setting the positive control minus the negative control as 100. […]
# T1 sequence (P56817 22-454): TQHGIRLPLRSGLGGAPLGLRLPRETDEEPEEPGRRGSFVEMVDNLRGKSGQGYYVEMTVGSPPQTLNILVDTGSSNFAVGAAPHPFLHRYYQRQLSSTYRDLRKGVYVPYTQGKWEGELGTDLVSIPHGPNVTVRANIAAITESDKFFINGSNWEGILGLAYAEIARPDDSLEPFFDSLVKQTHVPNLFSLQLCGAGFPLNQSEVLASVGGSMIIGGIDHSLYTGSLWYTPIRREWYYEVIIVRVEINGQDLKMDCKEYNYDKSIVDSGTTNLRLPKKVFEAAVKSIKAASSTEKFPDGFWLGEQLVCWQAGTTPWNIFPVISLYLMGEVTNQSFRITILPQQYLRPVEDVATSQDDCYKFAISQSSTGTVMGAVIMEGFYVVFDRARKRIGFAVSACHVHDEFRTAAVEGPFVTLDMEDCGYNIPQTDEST
row,inhibition at 100 µM,SMILES
1,98%,CN(C(=O)CC[C@@H](C1CCCCC1)n1c(N)nc2ccc(Oc3ccccc3)cc2c1=O)C1CCCCC1 [Example 1]
2,81%,CCOc1ccccc1-c1ccc2nc(N)n(C(CCC(=O)N(C)C3CCCCC3)C3CCCCC3)c(=O)c2c1 (stereo not drawn) [Example 2]
3,91%,CN(C(=O)CCC(C1CCCCC1)n1c(N)nc2ccc(Br)cc2c1=O)C1CCCCC1 (stereo not drawn) [Example 3]
